Like-named read-outs stand apart in the source and are kept apart here.
Assays:
[1] = Liver S9 Fraction Stability Assay
[2] = target: T1, full-length, untagged, human estrogen receptors (ERα) (Homo sapiens, UniProt P03372); experiment: ERα fluorescence polarization (FP) binding assay
T1 construct: insect cell-expressed, full-length, untagged, human estrogen receptors; purchased Life Technologies (Carlsbad, Calif.); host or cells: insect cells
Experimental: (§1) Receptor Binding Assay Information—In certain of the following examples, hormone receptor binding assays were used to determine the receptor binding activities of monomeric compound embodiments to androgen (AR), progesterone (PR), estrogen alpha (ERα) or glucocorticoid (GR) receptors. For AR, PR or ERα, the respective receptors are added to novel, tight-binding, selective ligands tagged with a fluorescent molecule, to form a receptor-ligand complex with a high polarization value. This complex is then added to individual monomeric compound embodiments that are contained in well plates. If the monomeric compound binds to the respective receptors, it displaces the fluorescent ligand from the complex, resulting in a low polarization value. In such embodiments, the monomeric compound is characterized as a competitor. […] In such embodiments, the monomeric compound is characterized as a noncompetitor. The shift in polarization value in the presence of the monomeric compound is used to determine the relative affinity of monomeric compound for the receptor.
For the androgen, progesterone, and estrogen receptor binding assays described herein, the preparation of reagents and test procedures is performed according to the manufacturer's instructions (Life Technologies, Carlsbad, Calif.). The plates are covered to protect the reagents from light and incubated at 20-25° C. for 4-8 hrs.
For ERα data, the ERα fluorescence polarization (FP) assay was used, which provides a sensitive and efficient method for high-throughput screening of potential ER ligands. The kit uses insect cell-expressed, full-length, untagged, human estrogen receptors and a tight-binding, fluorescent estrogen ligand (Fluormone™ ES2) in a homogenous mix-and-read assay format. ERα was added to a fluorescent estrogen ligand to form an ERα/Fluormone™ ES2 complex. This complex was then added to individual compound embodiments contained in 96-well plates. […] The change in polarization value in the presence of a compound embodiment was used to determine relative affinity of a compound embodiment for ERα.

[3] = target: T2, recombinant human aromatase (Homo sapiens, UniProt P11511); experiment: Aromatization by recombinant human aromatase (CYP19+P450 reductase Supersomes); details: 10 μM, 37° C.
T2 sequence (P11511 1-503): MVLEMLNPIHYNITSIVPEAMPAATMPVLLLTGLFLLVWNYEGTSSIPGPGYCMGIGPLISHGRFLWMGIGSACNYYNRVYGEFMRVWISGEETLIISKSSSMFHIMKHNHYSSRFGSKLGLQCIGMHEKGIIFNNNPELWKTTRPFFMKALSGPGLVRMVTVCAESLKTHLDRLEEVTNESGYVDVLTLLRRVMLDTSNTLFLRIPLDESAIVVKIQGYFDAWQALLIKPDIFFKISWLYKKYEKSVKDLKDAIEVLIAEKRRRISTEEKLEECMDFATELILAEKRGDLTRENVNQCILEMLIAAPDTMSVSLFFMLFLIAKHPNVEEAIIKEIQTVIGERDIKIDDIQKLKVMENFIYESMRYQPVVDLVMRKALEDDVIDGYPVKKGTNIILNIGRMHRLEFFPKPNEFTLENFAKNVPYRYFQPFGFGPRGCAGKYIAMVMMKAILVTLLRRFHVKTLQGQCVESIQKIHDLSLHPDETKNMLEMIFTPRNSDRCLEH

[4] = target: T3, human PR ligand-binding domain tagged with GST [PR-LBD (GST)] (Homo sapiens, UniProt P06401); experiment: PR fluorescence polarization (FP) binding assay; details: Fluormone PL Green
T3 construct: purchased Life Technologies (Carlsbad, Calif.)
T3 sequence (P06401 679-913 limits assumed): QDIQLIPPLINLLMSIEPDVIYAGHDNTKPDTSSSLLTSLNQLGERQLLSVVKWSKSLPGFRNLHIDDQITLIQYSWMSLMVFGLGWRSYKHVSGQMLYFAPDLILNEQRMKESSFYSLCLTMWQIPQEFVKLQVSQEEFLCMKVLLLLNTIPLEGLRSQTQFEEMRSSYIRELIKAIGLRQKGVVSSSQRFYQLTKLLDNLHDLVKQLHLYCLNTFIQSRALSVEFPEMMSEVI
Experimental: as §1
For the androgen, progesterone, and estrogen receptor binding assays described herein, the preparation of reagents and test procedures is performed according to the manufacturer's instructions (Life Technologies, Carlsbad, Calif.). The plates are covered to protect the reagents from light and incubated at 20-25° C. for 4-8 hrs. The fluorescence polarization of the samples is measured with 485 nm excitation and 530 nm emission interference filters.
In this example, PR binding activity was assessed using the PR fluorescence polarization (FP) assay, which provides a sensitive and efficient method for high-throughput screening of potential PR ligands. The kit uses human PR ligand-binding domain tagged with GST [PR-LBD (GST)], and a tight-binding, selective fluorescent progesterone ligand (Fluormone™ PL Green) in a homogenous mix-and-read assay format. Progesterone receptor [PR-LBD (GST)] was added to a fluorescent progesterone ligand (Fluormone™ PL Green) to form a PR-LBD (GST)/Fluormone™ PL Green complex resulting in a high polarization value. This complex was then added to individual compound embodiments in 96-well plates. Competitors displaced the fluorescent Fluormone™ PL Green ligand from the PR-LBD (GST)/Fluormone™ PL Green complex, causing the fluorescent ligand to tumble rapidly during its fluorescence lifetime, resulting in a low polarization value. […] The shift in polarization value in the presence of compound embodiments was used to determine relative affinity of compound embodiments for PR-LBD (GST). The fluorescence polarization of the samples was measured with 485 nm excitation and 530 nm emission interference filters. Results for monomeric compound embodiments wherein the R^2 groups is not present (such as to test compound activity after R^2 cleavage) are provided in Table 4.

[5] = test system: castrated weanling rats; details: rat, in vivo
[6] = human liver S9, W/O NADPH, 1 μM
[7] = human liver S9, W/O NADPH, 10 μM
[8] = human liver S9, With NADPH, 1 μM
[9] = human liver S9, With NADPH, 10 μM

T1 sequence (P03372 whole entry): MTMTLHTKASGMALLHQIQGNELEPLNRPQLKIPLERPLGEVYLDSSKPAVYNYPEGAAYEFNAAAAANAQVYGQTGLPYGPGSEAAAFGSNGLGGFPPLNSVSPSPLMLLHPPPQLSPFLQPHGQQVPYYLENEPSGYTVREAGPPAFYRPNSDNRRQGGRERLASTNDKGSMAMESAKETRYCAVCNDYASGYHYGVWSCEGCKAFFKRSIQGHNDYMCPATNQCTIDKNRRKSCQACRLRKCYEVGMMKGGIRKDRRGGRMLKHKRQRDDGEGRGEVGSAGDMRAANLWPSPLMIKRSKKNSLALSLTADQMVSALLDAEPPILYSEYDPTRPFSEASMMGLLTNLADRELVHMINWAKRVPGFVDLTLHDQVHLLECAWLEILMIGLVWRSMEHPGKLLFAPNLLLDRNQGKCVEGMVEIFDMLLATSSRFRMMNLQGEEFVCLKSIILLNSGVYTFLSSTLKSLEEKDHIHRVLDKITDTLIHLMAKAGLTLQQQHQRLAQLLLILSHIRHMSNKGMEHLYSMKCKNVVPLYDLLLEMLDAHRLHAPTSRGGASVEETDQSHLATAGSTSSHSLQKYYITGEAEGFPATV

Row | Compound | % parent molecule remaining after 2 hours at 37° C. [1, 6] | % parent molecule remaining after 2 hours at 37° C. [1, 7] | % parent molecule remaining after 2 hours at 37° C. [1, 8] | % parent molecule remaining after 2 hours at 37° C. [1, 9] | % remaining at 60 min [3] | also measured
1 | 7-α-methylnortestosterone dodecylcarbonate [CDB-4884] | 89% | 75% | 75% | 82% | – | –
2 | 7α-t-Butyl Testosterone [CDB-4919] | – | – | – | – | 92.0% | IC50 ([2]; fluorescence polarization, Fluormone ES2, read-out: IC50 (nM) ERα): 10400 nM; IC50 ([4]; read-out: IC50 (nM) PR binding): 1400 nM
3 | C[C@@H]1CC2=CC(=O)CC[C@@H]2[C@@H]2[C@@H]1[C@@H]1CC[C@H](O)[C@@]1(C)C[C@@H]2C [CDB-1321, dimethandrolone, reference compound] | – | – | – | – | 85.3% | –
4 | C[C@@H]1CC2=CC(=O)CCC2C2C1C1CC[C@H](OC(=O)CCC(=O)O[C@H]3CCC4C5C(C6CCC(=O)C=C6C[C@H]5C)[C@@H](C)C[C@@]43C)[C@@]1(C)C[C@@H]2C (some centres unmarked) [CDB-4866] | – | – | – | – | – | AUC (Ventral Prostate) [5]: 1464 mg*week; duration of levator ani muscle weight increase (anabolic effects) [5]: sustained until Day 99 (Week 14); duration of ventral prostate weight increase (androgenic effects) [5]: sustained until Day 99 (Week 14); ventral prostate gland weights relative to vehicle [5]: increased
5 | C[C@]12CCC(=O)C=C1CCC1C2CC[C@@]2(C)C1CC[C@@H]2OC(=O)CCC(=O)O[C@H]1CCC2C3CCC4=CC(=O)CC[C@]4(C)C3CC[C@@]21C (some centres unmarked) [CDB-4877] | – | – | – | – | – | AUC (Levator ani muscle) [5]: 2173 mg*week; AUC (Ventral Prostate) [5]: 524.4 mg*week; duration of ventral prostate weight increase (androgenic effects) [5]: sustained until Day 99 (Week 14); ventral prostate gland weights relative to vehicle [5]: increased
6 | C#C[C@]1(OC(=O)CCCCCCCCCCC)CCC2C3CCC4=CC(=O)CCC4C3CC[C@@]21CC (some centres unmarked) [CDB-4880] | 78% | 86% | 54% | 76% | – | –
7 | CCCCCCCCCCCCOC(=O)O[C@H]1CCC2C3CCC4=CC(=O)CC[C@]4(C)C3CC[C@@]21C (some centres unmarked) [CDB-4883, testosterone dodecylcarbonate] | 74% | 84% | 64% | 85% | – | –
8 | C[C@@H]1CC2=CC(=O)CC[C@@H]2C2C1C1CC[C@H](OC(=O)CCNC(=O)CCC(=O)O[C@H]3CCC4C5C([C@@H](C)C[C@@]43C)[C@H]3CCC(=O)C=C3C[C@H]5C)[C@@]1(C)C[C@@H]2C (some centres unmarked) [CDB-4886] | – | – | – | – | – | duration of levator ani muscle weight increase (anabolic effects) [5]: sustained until Day 99 (Week 14)
9 | C#C[C@]1(OC(=O)OC(C)(C)C)CCC2C3CCC4=CC(=O)CCC4C3CC[C@@]21CC (some centres unmarked) [CDB-4889] | 100≤ % | 100≤ % | 12% | 56% | – | –
10 | CCCCCCCCCCCCOC(=O)O[C@H]1CCC2C3CCC4=CC(=O)CCC4=C3[C@@H](C)C[C@@]21C (some centres unmarked) [CDB-4892] | 88% | 77% | 75% | 82% | – | –
11 | CC1CC2=CC(=O)CCC2(C)C2CCC3(C)C(O)CCC3C12 (stereo not drawn) [CDB-4911, 7β-methyl testosterone] | – | – | – | – | 3.4% | % remaining at 15 min [3]: 62.3%; % remaining at 30 min [3]: 33.5%; IC50 ([4]; read-out: IC50 (nM) PR binding): 415 nM
12 | CC[C@@H]1CC2=CC(=O)CC[C@]2(C)C2CC[C@@]3(C)C(CC[C@@H]3O)C21 (stereo partly drawn) [CDB-4918, 7α-ethyl testosterone] | – | – | – | – | 0.1% | IC50 [2]: 10500 nM; % remaining at 15 min [3]: 33.0%; % remaining at 30 min [3]: 0.2%; IC50 ([4]; IC50 (nM) PR binding): 672 nM
13 | CC12CCC(=O)C=C1CC(c1ccccc1)C1C2CCC2(C)C(O)CCC12 (stereo not drawn) [CDB-4920, 7α-Phenyl Testosterone] | – | – | – | – | 63.6% | IC50 [2]: 13500 nM; IC50 ([4]; IC50 (nM) PR binding): 463 nM
14 | CC12CCC(=O)C=C1CC(c1ccccc1)C1C2CCC2(C)C(O)CCC12 (stereo not drawn) [CDB-4921, 7β-Phenyl Testosterone] | – | – | – | – | 62.5% | IC50 ([4]; read-out: IC50 (nM) PR binding): 787 nM
15 | CCC1CC2=CC(=O)CCC2(C)C2CCC3(C)C(O)CCC3C12 (stereo not drawn) [CDB-4924, 7β-ethyl testosterone] | – | – | – | – | 0.3% | % remaining at 15 min [3]: 58.2%; % remaining at 30 min [3]: 25.4%; IC50 ([4]; read-out: IC50 (nM) PR binding): 842 nM
16 | DMA linolate [CDB-4895] | 51% | 62% | 55% | 60% | – | –
17 | DMA oleate [CDB-4893] | 60% | 55% | 54% | 51% | – | –
